Results from publication PMC4111603 (PLoS ONE, 2014).

Columns and labels:
human recombinant COX-2 [1] = target: T1, human recombinant COX-2 (Homo sapiens, UniProt P35354); experiment: COX-2 oxygenation of arachidonic acid, oxygen electrode; assay type: biochemical; details: for COX-2 activity (% of control): substrate AA 10 µM, initial activity 10-30 s, n = 3
T1 construct: purchased Cayman Chemical Co. 60122
T1 sequence (P35354 18-604): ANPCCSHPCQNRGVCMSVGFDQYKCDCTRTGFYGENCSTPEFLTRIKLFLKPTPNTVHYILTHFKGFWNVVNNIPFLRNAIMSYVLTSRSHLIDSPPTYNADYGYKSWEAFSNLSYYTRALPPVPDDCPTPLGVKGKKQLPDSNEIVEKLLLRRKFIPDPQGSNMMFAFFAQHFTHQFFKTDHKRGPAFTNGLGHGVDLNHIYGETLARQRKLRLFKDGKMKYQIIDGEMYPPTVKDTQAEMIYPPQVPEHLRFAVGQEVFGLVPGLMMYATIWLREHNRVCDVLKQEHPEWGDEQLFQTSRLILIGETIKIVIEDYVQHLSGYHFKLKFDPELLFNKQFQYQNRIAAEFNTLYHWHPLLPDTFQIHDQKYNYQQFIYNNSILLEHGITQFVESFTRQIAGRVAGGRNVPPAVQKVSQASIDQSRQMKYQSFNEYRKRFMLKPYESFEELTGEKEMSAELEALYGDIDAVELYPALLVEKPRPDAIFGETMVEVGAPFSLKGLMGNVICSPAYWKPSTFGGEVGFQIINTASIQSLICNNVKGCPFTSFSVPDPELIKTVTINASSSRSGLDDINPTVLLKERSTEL
Method: (§1) The assay was performed according to Meade et al. with minor modifications using an oxygen electrode chamber with integral stirring (Oxygraph System, Hansatech Instruments, King’s Lynn, U.K.). The electrode was calibrated to ambient temperature and air pressure. Samples were prepared in 0.1 M Tris-HCl buffer pH 7.4 containing 1 µM haematin, 2 mM phenol, 5 mM EDTA, 10 µM substrate (AA or 2-AG) (final assay volume was 2 ml). After addition of test substance dissolved in DMSO (final assay concentration 1%) a baseline was established for 5 min before initiation of reaction by addition of 200 units COX-1 or COX-2. Change in oxygen consumption was monitored for approximately 5 min.
(§2) FAAH inhibition was calculated using log(inhibitor) vs. response with variable slope (four parameters) algorithm in the GraphPad Prism computer program (GraphPad Software Inc., San Diego, CA. USA). […] The two curves were compared by Akaike’s informative criteria and the best fit was chosen. Initial COX activities were calculated as the change in oxygen tension between 10 and 30 seconds after addition of enzyme.

human recombinant COX-2 [2] = target: T1, human recombinant COX-2; experiment: COX-2 oxygenation of 2-AG, oxygen electrode; assay type: biochemical; details: for COX-2 activity (% of control): substrate 2-AG 10 µM, initial activity 10-30 s, n = 3
Method: as §1, §2

[3] = cited from earlier work

Row | COX-2 activity (% of control) (human recombinant COX-2 [1]; 100 µM NSAID) | COX-2 activity (% of control) (human recombinant COX-2 [1]; 300 µM NSAID) | COX-2 activity (% of control) (human recombinant COX-2 [2]; 100 µM NSAID) | COX-2 activity (% of control) (human recombinant COX-2 [2]; 300 µM NSAID) | inhibition of COX-2-catalysed oxygenation of arachidonic acid (result in words) (human recombinant COX-2 [1]) | COX-2 activity (% of control) (human recombinant COX-2 [1]; 30 µM NSAID) | COX-2 activity (% of control) (human recombinant COX-2 [2]; 30 µM NSAID) | inhibition of cyclooxygenation of 2-AG (human recombinant COX-2 [2]; 30 µM compound) | inhibition of cyclooxygenation of 2-AG (human recombinant COX-2 [2]; 100 µM compound) | inhibition of cyclooxygenation of 2-AG (human recombinant COX-2 [2]; 300 µM compound) | Structure (SMILES) | inhibition of COX-2-catalysed oxygenation of 2-AG at longer incubation times (human recombinant COX-2 [2]; lower potency than the parent compound, initial inhibition (10-30 s) only modestly affected) | share of the dose recovered in the urine ([3]; flurbiprofen 50 mg a day for 10 consecutive days) | urinary recovery ([3]; 24 h after administration of 400 mg of ibuprofen)
1 | 103±21 % of control | 84±10 % of control | 73±14 % of control | 91±2 % of control | – | – | – | – | – | – | CC(CO)Cc1ccc(C(C)C(=O)O)cc1 (stereo not drawn) [3′-OH-Ibuprofen, 2-[4-(3-hydroxy-2-methylpropyl)phenyl]propionic acid] | retained the ability of ibuprofen to inhibit | – | –
2 | 106±16 % of control | 106±9 % of control | 24±4 % of control | −6±9 % of control | failed to inhibit | 88±16 % of control | 39±11 % of control | partially | partially | completely | CC(C(=O)O)c1ccc(-c2ccc(O)cc2)c(F)c1 (stereo not drawn) [4′-OH-Flurbiprofen] | – | 43% | –
3 | 98±17 % of control | 83±12 % of control | 125±24 % of control | 115±21 % of control | – | – | – | – | – | – | CC(C(=O)O)c1ccc(CC(C)(C)O)cc1 (stereo not drawn) [2′-OH-Ibuprofen, 2-[4-(2-hydroxy-2-methylpropyl)phenyl]propionic acid] | – | – | 23%
